Assay results as given in ChEMBL document CHEMBL1153286, “Synthesis and biological evaluation of sulfonylurea and thiourea derivatives substituted with benzenesulfonamide groups as potential hypoglycemic agents” (Bioorg Med Chem Lett, 2009).

System: not listed separately
Assay: Effect on insulin release in rat pancreatic cells at 1 umol/L after 6 hrs by radioimmunoassay
Assay type: functional

| SMILES | Activity |
| --- | --- |
| COc1ccc(NC(=S)NS(=O)(=O)c2ccc(CCNS(=O)(=O)c3ccc(Br)cc3)cc2)cc1 | 22.25 uIU/ml |
| COc1ccc(NC(=S)NS(=O)(=O)c2ccc(CCNS(=O)(=O)c3ccccc3)cc2)cc1 | 22.86 uIU/ml |
| Cc1ccc(NC(=S)NS(=O)(=O)c2ccc(CCNS(=O)(=O)c3ccc(C)cc3)cc2)cc1 | 21.99 uIU/ml |
| CC(=O)Nc1ccc(S(=O)(=O)NCCc2ccc(S(=O)(=O)NC(=O)NC3CCC(C)CC3)cc2)cc1 (stereo unspecified) | 30.18 uIU/ml |
| CC1CCC(NC(=O)NS(=O)(=O)c2ccc(CCNS(=O)(=O)c3ccccc3)cc2)CC1 (stereo unspecified) | 32.15 uIU/ml |
| O=S(=O)(NCCc1ccc(S(=O)(=O)NC(=S)Nc2ccc(Cl)cc2)cc1)c1ccc(Cl)cc1 | 29.46 uIU/ml |
| COc1cc(S(=O)(=O)NCCc2ccc(S(=O)(=O)NC(=O)NC3CCC(C)CC3)cc2)ccc1NC(C)=O (stereo unspecified) | 24.57 uIU/ml |
| O=C(NC1CCCCC1)NS(=O)(=O)c1ccc(CCNS(=O)(=O)c2ccccc2)cc1 | 22.86 uIU/ml |

System: not listed separately
Assay: Effect on insulin release in rat pancreatic cells at 10 umol/L after 6 hrs by radioimmunoassay
Assay type: functional

| SMILES | Activity |
| --- | --- |
| COc1ccc(NC(=S)NS(=O)(=O)c2ccc(CCNS(=O)(=O)c3ccc(Br)cc3)cc2)cc1 | 24.67 uIU/ml |
| COc1ccc(NC(=S)NS(=O)(=O)c2ccc(CCNS(=O)(=O)c3ccccc3)cc2)cc1 | 24.98 uIU/ml |
| Cc1ccc(NC(=S)NS(=O)(=O)c2ccc(CCNS(=O)(=O)c3ccc(C)cc3)cc2)cc1 | 24.24 uIU/ml |
| CC(=O)Nc1ccc(S(=O)(=O)NCCc2ccc(S(=O)(=O)NC(=O)NC3CCC(C)CC3)cc2)cc1 (stereo unspecified) | 36.67 uIU/ml |
| CC1CCC(NC(=O)NS(=O)(=O)c2ccc(CCNS(=O)(=O)c3ccccc3)cc2)CC1 (stereo unspecified) | 41.29 uIU/ml |
| O=S(=O)(NCCc1ccc(S(=O)(=O)NC(=S)Nc2ccc(Cl)cc2)cc1)c1ccc(Cl)cc1 | 26.37 uIU/ml |
| COc1cc(S(=O)(=O)NCCc2ccc(S(=O)(=O)NC(=O)NC3CCC(C)CC3)cc2)ccc1NC(C)=O (stereo unspecified) | 24.47 uIU/ml |
| O=C(NC1CCCCC1)NS(=O)(=O)c1ccc(CCNS(=O)(=O)c2ccccc2)cc1 | 28.27 uIU/ml |

System: not listed separately
Assay: Effect on insulin release in rat pancreatic cells at 100 umol/L after 6 hrs by radioimmunoassay
Assay type: functional

| SMILES | Activity |
| --- | --- |
| COc1ccc(NC(=S)NS(=O)(=O)c2ccc(CCNS(=O)(=O)c3ccc(Br)cc3)cc2)cc1 | 26.17 uIU/ml |
| COc1ccc(NC(=S)NS(=O)(=O)c2ccc(CCNS(=O)(=O)c3ccccc3)cc2)cc1 | 23.42 uIU/ml |
| Cc1ccc(NC(=S)NS(=O)(=O)c2ccc(CCNS(=O)(=O)c3ccc(C)cc3)cc2)cc1 | 20.87 uIU/ml |
| CC(=O)Nc1ccc(S(=O)(=O)NCCc2ccc(S(=O)(=O)NC(=O)NC3CCC(C)CC3)cc2)cc1 (stereo unspecified) | 28.52 uIU/ml |
| CC1CCC(NC(=O)NS(=O)(=O)c2ccc(CCNS(=O)(=O)c3ccccc3)cc2)CC1 (stereo unspecified) | 52.23 uIU/ml |
| O=S(=O)(NCCc1ccc(S(=O)(=O)NC(=S)Nc2ccc(Cl)cc2)cc1)c1ccc(Cl)cc1 | 26.07 uIU/ml |
| COc1cc(S(=O)(=O)NCCc2ccc(S(=O)(=O)NC(=O)NC3CCC(C)CC3)cc2)ccc1NC(C)=O (stereo unspecified) | 24.83 uIU/ml |
| O=C(NC1CCCCC1)NS(=O)(=O)c1ccc(CCNS(=O)(=O)c2ccccc2)cc1 | 31.29 uIU/ml |

System: Adipocyte
Assay: Effect on 2-deoxy-D-[1-3H]glucose transport in Sprague-Dawley rat adipocytes at 1 uM in absence of insulin by liquid scintillation counting
Assay type: functional

| SMILES | Activity |
| --- | --- |
| COc1ccc(NC(=S)NS(=O)(=O)c2ccc(CCNS(=O)(=O)c3ccc(Br)cc3)cc2)cc1 | 4125.36 disintegrations/minute |
| COc1ccc(NC(=S)NS(=O)(=O)c2ccc(CCNS(=O)(=O)c3ccccc3)cc2)cc1 | 4179.5 disintegrations/minute |
| Cc1ccc(NC(=S)NS(=O)(=O)c2ccc(CCNS(=O)(=O)c3ccc(C)cc3)cc2)cc1 | 4428.46 disintegrations/minute |
| CC(=O)Nc1ccc(S(=O)(=O)NCCc2ccc(S(=O)(=O)NC(=O)NC3CCC(C)CC3)cc2)cc1 (stereo unspecified) | 4215.36 disintegrations/minute |
| O=S(=O)(NCCc1ccc(S(=O)(=O)NC(=S)Nc2ccc(Cl)cc2)cc1)c1ccc(Cl)cc1 | 4587.26 disintegrations/minute |
| COc1cc(S(=O)(=O)NCCc2ccc(S(=O)(=O)NC(=O)NC3CCC(C)CC3)cc2)ccc1NC(C)=O (stereo unspecified) | 5294.78 disintegrations/minute |

System: Adipocyte
Assay: Effect on 2-deoxy-D-[1-3H]glucose transport in Sprague-Dawley rat adipocytes at 1 uM in presence of insulin by liquid scintillation counting
Assay type: functional

| SMILES | Activity |
| --- | --- |
| COc1ccc(NC(=S)NS(=O)(=O)c2ccc(CCNS(=O)(=O)c3ccc(Br)cc3)cc2)cc1 | 5177.84 disintegrations/minute |
| COc1ccc(NC(=S)NS(=O)(=O)c2ccc(CCNS(=O)(=O)c3ccccc3)cc2)cc1 | 5708.43 disintegrations/minute |
| Cc1ccc(NC(=S)NS(=O)(=O)c2ccc(CCNS(=O)(=O)c3ccc(C)cc3)cc2)cc1 | 5627.67 disintegrations/minute |
| CC(=O)Nc1ccc(S(=O)(=O)NCCc2ccc(S(=O)(=O)NC(=O)NC3CCC(C)CC3)cc2)cc1 (stereo unspecified) | 5087.78 disintegrations/minute |
| O=S(=O)(NCCc1ccc(S(=O)(=O)NC(=S)Nc2ccc(Cl)cc2)cc1)c1ccc(Cl)cc1 | 5179.3 disintegrations/minute |
| COc1cc(S(=O)(=O)NCCc2ccc(S(=O)(=O)NC(=O)NC3CCC(C)CC3)cc2)ccc1NC(C)=O (stereo unspecified) | 5587.26 disintegrations/minute |

System: Adipocyte
Assay: Effect on 2-deoxy-D-[1-3H]glucose transport in Sprague-Dawley rat adipocytes at 10 uM in absence of insulin by liquid scintillation counting
Assay type: functional

| SMILES | Activity |
| --- | --- |
| COc1ccc(NC(=S)NS(=O)(=O)c2ccc(CCNS(=O)(=O)c3ccc(Br)cc3)cc2)cc1 | 4026.52 disintegrations/minute |
| COc1ccc(NC(=S)NS(=O)(=O)c2ccc(CCNS(=O)(=O)c3ccccc3)cc2)cc1 | 4118.78 disintegrations/minute |
| Cc1ccc(NC(=S)NS(=O)(=O)c2ccc(CCNS(=O)(=O)c3ccc(C)cc3)cc2)cc1 | 4401.01 disintegrations/minute |
| CC(=O)Nc1ccc(S(=O)(=O)NCCc2ccc(S(=O)(=O)NC(=O)NC3CCC(C)CC3)cc2)cc1 (stereo unspecified) | 5616.15 disintegrations/minute |
| O=S(=O)(NCCc1ccc(S(=O)(=O)NC(=S)Nc2ccc(Cl)cc2)cc1)c1ccc(Cl)cc1 | 4432.15 disintegrations/minute |
| COc1cc(S(=O)(=O)NCCc2ccc(S(=O)(=O)NC(=O)NC3CCC(C)CC3)cc2)ccc1NC(C)=O (stereo unspecified) | 6547.93 disintegrations/minute |

System: Adipocyte
Assay: Effect on 2-deoxy-D-[1-3H]glucose transport in Sprague-Dawley rat adipocytes at 10 uM in presence of insulin by liquid scintillation counting
Assay type: functional

| SMILES | Activity |
| --- | --- |
| COc1ccc(NC(=S)NS(=O)(=O)c2ccc(CCNS(=O)(=O)c3ccc(Br)cc3)cc2)cc1 | 5234.61 disintegrations/minute |
| COc1ccc(NC(=S)NS(=O)(=O)c2ccc(CCNS(=O)(=O)c3ccccc3)cc2)cc1 | 7555.71 disintegrations/minute |
| Cc1ccc(NC(=S)NS(=O)(=O)c2ccc(CCNS(=O)(=O)c3ccc(C)cc3)cc2)cc1 | 5115.32 disintegrations/minute |
| CC(=O)Nc1ccc(S(=O)(=O)NCCc2ccc(S(=O)(=O)NC(=O)NC3CCC(C)CC3)cc2)cc1 (stereo unspecified) | 6200.35 disintegrations/minute |
| O=S(=O)(NCCc1ccc(S(=O)(=O)NC(=S)Nc2ccc(Cl)cc2)cc1)c1ccc(Cl)cc1 | 5436.58 disintegrations/minute |
| COc1cc(S(=O)(=O)NCCc2ccc(S(=O)(=O)NC(=O)NC3CCC(C)CC3)cc2)ccc1NC(C)=O (stereo unspecified) | 6341.17 disintegrations/minute |

System: Adipocyte
Assay: Effect on 2-deoxy-D-[1-3H]glucose transport in Sprague-Dawley rat adipocytes at 100 uM in absence of insulin by liquid scintillation counting
Assay type: functional

| SMILES | Activity |
| --- | --- |
| COc1ccc(NC(=S)NS(=O)(=O)c2ccc(CCNS(=O)(=O)c3ccc(Br)cc3)cc2)cc1 | 4335.26 disintegrations/minute |
| COc1ccc(NC(=S)NS(=O)(=O)c2ccc(CCNS(=O)(=O)c3ccccc3)cc2)cc1 | 4366.76 disintegrations/minute |
| Cc1ccc(NC(=S)NS(=O)(=O)c2ccc(CCNS(=O)(=O)c3ccc(C)cc3)cc2)cc1 | 4513.06 disintegrations/minute |
| CC(=O)Nc1ccc(S(=O)(=O)NCCc2ccc(S(=O)(=O)NC(=O)NC3CCC(C)CC3)cc2)cc1 (stereo unspecified) | 6736.82 disintegrations/minute |
| O=S(=O)(NCCc1ccc(S(=O)(=O)NC(=S)Nc2ccc(Cl)cc2)cc1)c1ccc(Cl)cc1 | 4763.58 disintegrations/minute |
| COc1cc(S(=O)(=O)NCCc2ccc(S(=O)(=O)NC(=O)NC3CCC(C)CC3)cc2)ccc1NC(C)=O (stereo unspecified) | 7037.78 disintegrations/minute |

System: Adipocyte
Assay: Effect on 2-deoxy-D-[1-3H]glucose transport in Sprague-Dawley rat adipocytes at 100 uM in presence of insulin by liquid scintillation counting
Assay type: functional

| SMILES | Activity |
| --- | --- |
| COc1ccc(NC(=S)NS(=O)(=O)c2ccc(CCNS(=O)(=O)c3ccc(Br)cc3)cc2)cc1 | 5069.25 disintegrations/minute |
| COc1ccc(NC(=S)NS(=O)(=O)c2ccc(CCNS(=O)(=O)c3ccccc3)cc2)cc1 | 6987.19 disintegrations/minute |
| Cc1ccc(NC(=S)NS(=O)(=O)c2ccc(CCNS(=O)(=O)c3ccc(C)cc3)cc2)cc1 | 5624.51 disintegrations/minute |
| CC(=O)Nc1ccc(S(=O)(=O)NCCc2ccc(S(=O)(=O)NC(=O)NC3CCC(C)CC3)cc2)cc1 (stereo unspecified) | 6812.33 disintegrations/minute |
| O=S(=O)(NCCc1ccc(S(=O)(=O)NC(=S)Nc2ccc(Cl)cc2)cc1)c1ccc(Cl)cc1 | 5764.25 disintegrations/minute |
| COc1cc(S(=O)(=O)NCCc2ccc(S(=O)(=O)NC(=O)NC3CCC(C)CC3)cc2)ccc1NC(C)=O (stereo unspecified) | 7447.72 disintegrations/minute |

System: Adipocyte
Assay: Increase in glucose absorption in Sprague-Dawley rat adipocytes at 100 uM by liquid scintillation counting relative to basal level
Assay type: functional

| SMILES | fold change (FC) |
| --- | --- |
| COc1cc(S(=O)(=O)NCCc2ccc(S(=O)(=O)NC(=O)NC3CCC(C)CC3)cc2)ccc1NC(C)=O (stereo unspecified) | 1.58 |
